In publication PMC3856088, “Small Molecule Binding, Docking, and Characterization of the Interaction between Pth1 and Peptidyl-tRNA” (International Journal of Molecular Sciences, 2013):

Molecular target: T1, E. coli Pth1 (Escherichia coli, UniProt P0A7D1)
T1 construct: gene pth; wild type, 15N-labelled, expressed in E. coli W3110, purified on His-Trap FF (tag not described), 21 kDa monomer
Assay: 1H-15N HSQC NMR titration, chemical shift perturbation mapping
Conditions: 20 mM Bis-Tris, 100 mM NaCl, 2 mM TCEP, pH 6.6, 25 °C; 200 uM 15N Pth1; ligand:protein up to 64:1; site opposite the substrate binding face

T1 sequence (P0A7D1 2-194): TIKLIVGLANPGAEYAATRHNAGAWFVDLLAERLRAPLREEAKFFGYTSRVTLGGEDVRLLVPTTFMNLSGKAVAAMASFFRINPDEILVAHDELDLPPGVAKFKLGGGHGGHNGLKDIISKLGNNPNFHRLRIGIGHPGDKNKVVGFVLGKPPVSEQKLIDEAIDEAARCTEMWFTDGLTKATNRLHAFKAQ

## c1cc2c(cc1CN1CCNCC1)OCO2 [piperonylpiperazine]
  1H-15N HSQC NMR titration, chemical shift perturbation mapping: The binding of piperonylpiperazine to wild type E. coli Pth1 was studied by NMR spectroscopy
